In patent US12162890B2 (Novartis AG, priority 2015, dated 2024):

Target: HEK293 cells with stable expression of the GRIN1 gene and tetracycline-inducible expression of the GRIN2B gene (NMDA receptor, NR2B) (Homo sapiens, UniProt Q13224)
Assay: Fluo-8 Ca2+ flux assay: reversal of Ro 25-6981-mediated suppression of the Ca2+ response to co-agonist (glutamate/glycine); also: test concentration or dose not given here
Type: cell-based
Conditions: reversal of the Ro 25-6981 suppression of the Ca2+ response to co-agonist (glutamate/glycine)

HEK293 cells with stable expression of the GRIN1 gene and tetracycline-inducible expression of the GRIN2B gene (NMDA receptor, NR2B), sequence (Q13224 27-1484, other chains not shown): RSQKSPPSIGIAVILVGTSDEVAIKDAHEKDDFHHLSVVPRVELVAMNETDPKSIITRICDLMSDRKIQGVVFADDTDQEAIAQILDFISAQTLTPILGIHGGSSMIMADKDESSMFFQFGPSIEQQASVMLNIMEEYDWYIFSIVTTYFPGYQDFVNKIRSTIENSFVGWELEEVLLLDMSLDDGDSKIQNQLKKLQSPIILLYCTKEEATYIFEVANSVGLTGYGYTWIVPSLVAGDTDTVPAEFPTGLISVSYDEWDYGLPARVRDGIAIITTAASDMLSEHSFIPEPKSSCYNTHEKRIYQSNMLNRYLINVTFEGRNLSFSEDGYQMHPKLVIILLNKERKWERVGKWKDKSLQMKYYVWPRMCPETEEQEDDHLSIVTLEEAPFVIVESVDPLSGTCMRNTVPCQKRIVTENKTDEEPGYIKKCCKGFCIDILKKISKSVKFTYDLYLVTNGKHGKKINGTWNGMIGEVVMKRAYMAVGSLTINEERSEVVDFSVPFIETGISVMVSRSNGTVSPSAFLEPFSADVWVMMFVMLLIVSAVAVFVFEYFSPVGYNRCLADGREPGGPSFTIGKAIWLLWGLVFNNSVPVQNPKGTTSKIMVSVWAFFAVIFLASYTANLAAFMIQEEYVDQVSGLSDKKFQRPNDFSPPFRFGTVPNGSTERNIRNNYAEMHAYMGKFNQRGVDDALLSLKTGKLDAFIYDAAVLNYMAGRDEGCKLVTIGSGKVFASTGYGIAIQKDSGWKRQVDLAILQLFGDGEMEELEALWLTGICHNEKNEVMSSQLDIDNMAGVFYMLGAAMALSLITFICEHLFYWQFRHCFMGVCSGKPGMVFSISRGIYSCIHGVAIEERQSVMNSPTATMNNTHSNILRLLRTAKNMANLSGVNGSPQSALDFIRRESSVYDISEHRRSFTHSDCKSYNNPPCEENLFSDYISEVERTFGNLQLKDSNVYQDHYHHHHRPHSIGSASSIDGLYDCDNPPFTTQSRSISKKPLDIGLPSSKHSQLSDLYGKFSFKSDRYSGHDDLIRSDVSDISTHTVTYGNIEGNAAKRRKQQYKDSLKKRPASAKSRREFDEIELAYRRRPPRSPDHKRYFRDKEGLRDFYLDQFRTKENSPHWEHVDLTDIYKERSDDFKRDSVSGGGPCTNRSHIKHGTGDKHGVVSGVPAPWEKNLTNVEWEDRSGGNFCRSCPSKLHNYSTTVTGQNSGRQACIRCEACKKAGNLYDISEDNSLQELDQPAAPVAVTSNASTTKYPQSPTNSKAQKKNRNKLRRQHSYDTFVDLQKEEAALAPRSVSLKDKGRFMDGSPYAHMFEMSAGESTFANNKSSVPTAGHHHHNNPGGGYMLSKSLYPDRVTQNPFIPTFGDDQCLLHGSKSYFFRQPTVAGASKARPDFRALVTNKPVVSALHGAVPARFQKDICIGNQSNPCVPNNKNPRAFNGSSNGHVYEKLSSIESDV

| SMILES | Response Recovered (%) |
| --- | --- |
| CCC1(F)CN(C(=O)Cn2ccn3ccc(-c4ccc(F)c(Cl)c4)c3c2=O)C1 [Example 400, 8-(3-chloro-4-fluorophenyl)-2-(2-(3-ethyl-3-fluoroazetidin-1-yl)-2-oxoethyl)pyrrolo[1,2-a]pyrazin-1(2H)-one] | 97% |
| Cc1cc(-c2ccn3ccn(CC(=O)N4CC(C)(F)C4)c(=O)c23)cnc1Cl [Example 408, 8-(6-chloro-5-methylpyridin-3-yl)-2-(2-(3-fluoro-3-methylazetidin-1-yl)-2-oxoethyl)pyrrolo[1,2-a]pyrazin-1(2H)-one] | 51% |
| CCC1(F)CN(C(=O)Cn2ccc3c(c(-c4ccc(F)c(Cl)c4)cn3C3CC3)c2=O)C1 [Example 237, 3-(3-chloro-4-fluorophenyl)-1-cyclopropyl-5-(2-(3-ethyl-3-fluoroazetidin-1-yl)-2-oxoethyl)-1H-pyrrolo[3,2-c]pyridin-4(5H)-one] | 79% |
| O=C(Cn1ccc2[nH]cc(-c3ccc(F)c(C(F)(F)F)c3)c2c1=O)N1CCCC1 [Example 219, 3-(4-fluoro-3-(trifluoromethyl)phenyl)-5-(2-oxo-2-(pyrrolidin-1-yl)ethyl)-1H-pyrrolo[3,2-c]pyridin-4(5H)-one] | 91% |
| O=C(Cn1nnc2scc(-c3ccc(Cl)c(C(F)(F)F)c3)c2c1=O)N1CCC(F)C1 (stereo not shown) [Example 332, 5-(4-chloro-3-(trifluoromethyl)phenyl)-3-(2-(3-fluoropyrrolidin-1-yl)-2-oxoethyl)thieno[2,3-d][1,2,3]triazin-4(3H)-one] | 20% |
| O=C(Cn1ccc2c(c(-c3ccc(F)c(C(F)(F)F)c3)cn2-c2ccncn2)c1=O)N1CCC(F)C1 (stereo not shown) [Example 244, 3-(4-fluoro-3-(trifluoromethyl)phenyl)-5-(2-(3-fluoropyrrolidin-1-yl)-2-oxoethyl)-1-(pyrimidin-4-yl)-1H-pyrrolo[3,2-c]pyridin-4(5H)-one] | 110% |
| O=C(Cn1ccn2c(C3CC3)nc(-c3ccc(Cl)c(Cl)c3)c2c1=O)N1CC(F)(CF)C1 [Example 440, 3-cyclopropyl-1-(3,4-dichlorophenyl)-7-(2-(3-fluoro-3-(fluoromethyl)azetidin-1-yl)-2-oxoethyl)imidazo[1,5-a]pyrazin-8(7H)-one] | 110% |
| O=C(Cn1cnc2c(c(-c3ccc(F)c(C(F)(F)F)c3)cn2CCO)c1=O)N1CCC(F)C1 (stereo not shown) [Example 196, 5-(4-fluoro-3-(trifluoromethyl)phenyl)-3-(2-(3-fluoropyrrolidin-1-yl)-2-oxoethyl)-7-(2-hydroxyethyl)-3H-pyrrolo[2,3-d]pyrimidin-4(7H)-one] | 34% |
| O=C(Cn1ccc2scc(-c3ccc(F)c(C(F)(F)F)c3)c2c1=O)N1CC2(CC2)C1 [Example 80, 3-(4-fluoro-3-(trifluoromethyl)phen-yl)-5-(2-oxo-2-(5-azaspiro[2.3]hexan-5-yl)ethyl)thieno[3,2-c]pyridin-4(5H)-one] | 64% |
| Cc1nc(-c2ccc(F)c(C(F)(F)F)c2)c2c(=O)n(CC(=O)N3CCC(F)C3)ccn12 (stereo not shown) [Example 427, 1-(4-fluoro-3-(trifluoromethyl)phenyl)-7-(2-(3-fluoropyrrolidin-1-yl)-2-oxoethyl)-3-methylimidazo[1,5-a]pyrazin-8(7H)-one] | 19% |
| Cc1nc(-c2ccc(F)c(Cl)c2)c2c(=O)n(CC(=O)N3CCC(F)C3)ccn12 (stereo not shown) [Example 428, 1-(3-chloro-4-fluorophenyl)-7-(2-(3-fluoropyrrolidin-1-yl)-2-oxoethyl)-3-methylimidazo[1,5-a]pyrazin-8(7H)-one] | 18% |
| COCCn1cc(-c2ccc(F)c(C(F)(F)F)c2)c2c(=O)n(CC(=O)N3CCC(F)C3)cnc21 (stereo not shown) [Example 188, 5-(4-fluoro-3-(trifluoromethyl)phenyl)-3-(2-(3-fluoropyrrolidin-1-yl)-2-oxoethyl)-7-(2-methoxyethyl)-3H-pyrrolor[2,3-d]pyrimidin-4(7H)-one] | 53% |
| O=C(Cn1ccn2ccc(-c3ccc(F)c(Cl)c3)c2c1=O)N1CC(F)(c2ccccc2)C1 [Example 399, 8-(3-chloro-4-fluorophenyl)-2-(2-(3-fluoro-3-phenylazetidin-1-yl)-2-oxoethyl)pyrrolo[1,2-a]pyrazin-1(2H)-one] | 1.5% |
| Cc1cn(CC(=O)N2CC(C)(F)C2)c(=O)c2c(-c3ccc(Cl)c(Cl)c3)ccn12 [Example 419, 8-(3,4-dichlorophenyl)-2-(2-(3-fluoro-3-methylazetidin-1-yl)-2-oxoethyl)-4-methylpyrrolo[1,2-a]pyrazin-1(2H)-one] | 110% |
| O=C(Cn1ccc2[nH]cc(-c3ccc(Cl)c(C(F)(F)F)c3)c2c1=O)N1CC(F)(F)C1 [Example 212, 3-(4-chloro-3-(trifluoromethyl)phenyl)-5-(2-(3,3-difluoroazetidin-1-yl)-2-oxoethyl)-1H-pyrrolo[3,2-c]pyridin-4(5H)-one] | 107% |
| O=C(Cn1ccc2[nH]cc(-c3ccc(F)c(Cl)c3)c2c1=O)N1CCCC1 [Example 208, 3-(3-chloro-4-fluorophenyl)-5-(2-oxo-2-(pyrrolidin-1-yl)ethyl)-1H-pyrrolo[3,2-c]pyridin-4(5H)-one] | 60% |

| SMILES | Response Recovered (%) |
| --- | --- |
| O=C(Cn1ccc2[nH]cc(-c3ccc(Cl)c(F)c3)c2c1=O)N1CCCC1 [Example 211, 3-(4-chloro-3-fluorophenyl)-5-(2-oxo-2-(pyrrolidin-1-yl)ethyl)-1H-pyrrolo[3,2-c]pyridin-4(5H)-one] | 55% |
| CC1(F)CN(C(=O)Cn2ccn3cnc(-c4ccc(F)c(Cl)c4)c3c2=O)C1 [Example 445, 1-(3-chloro-4-fluorophenyl)-7-(2-(3-fluoro-3-methylazetidin-1-yl)-2-oxoethyl)imidazo[1,5-a]pyrazin-8(7H)-one] | 34% |
| CC(C)(O)Cn1cc(-c2ccc(F)c(C(F)(F)F)c2)c2c(=O)n(CC(=O)N3CCC(F)C3)ccc21 (stereo not shown) [Example 257, 3-(4-fluoro-3-(trifluoromethyl)phenyl)-5-(2-(3-fluoropyrrolidin-1-yl)-2-oxoethyl)-1-(2-hydroxy-2-methylpropyl)-1H-pyrrolo[3,2-c]pyridin-4(5H)-one] | 20% |
| Cn1cc(-c2ccc(F)c(C(F)(F)F)c2)c2c(=O)n(CC(=O)N3CCC(F)C3)ccc21 (stereo not shown) [Example 251] | 61% |
| O=C(CCn1ccc2scc(-c3ccc(Cl)c(C(F)(F)F)c3)c2c1=O)N1CCC(F)C1 (stereo not shown) [Example 24, 3-(4-chloro-3-(trifluoromethyl)phenyl)-5-(3-(3-fluoropyrrolidin-1-yl)-3-oxopropyl)thieno[3,2-c]pyridin-4(5H)-one] | 3% |
| O=C(Cn1cc(-c2ccccc2)c2scc(-c3ccc(Cl)c(C(F)(F)F)c3)c2c1=O)N1CCCC1 [Example 102, 3-(4-chloro-3-(trifluoromethyl)phenyl)-5-(2-oxo-2-(pyrrolidin-1-yl)ethyl)-7-phenylthieno[3,2-c]pyridin-4(5H)-one] | 23% |
| O=C(Cn1ccn2ccc(-c3cnc(Cl)c(Cl)c3)c2c1=O)N1CC(F)(CF)C1 [Example 406, 8-(5,6-dichloropyridin-3-yl)-2-(2-(3-fluoro-3-(fluoromethyl)azetidin-1-yl)-2-oxoethyl)pyrrolo[1,2-a]pyrazin-1(2H)-one] | 85% |
| Cc1nnc(-n2cc(-c3ccc(F)c(C(F)(F)F)c3)c3c(=O)n(CC(=O)N4CCC(F)C4)ccc32)o1 (stereo not shown) [Example 263, 3-(4-fluoro-3-(trifluoromethyl)phenyl)-5-(2-(3-fluoropyrrolidin-1-yl)-2-oxoethyl)-1-(5-methyl-1,3,4-oxadiazol-2-yl)-1H-pyrrolo[3,2-c]pyridin-4(5H)-one] | 72% |
| Cc1nc(-c2ccc(F)c(Cl)c2)c2c(=O)n(CC(=O)N3CC(F)(F)C3)ccn12 [Example 430, 1-(3-chloro-4-fluorophenyl)-7-(2-(3,3-dilfuoroazetidin-1-yl)-2-oxoethyl)-3-methylimidazo[1,5-a]pyrazin-8(7H)-one] | 7.3% |
| O=C(Cn1ncc2scc(-c3ccc(F)c(Cl)c3)c2c1=O)N1CCCC1 [Example 337, 3-(3-chloro-4-fluorophenyl)-5-(2-oxo-2-(pyrrolidin-1-yl)ethyl)thieno[2,3-d]pyridazin-4(5H)-one] | 7% |
| CCOCc1cn(CC(=O)N2CCC(F)C2)c(=O)c2c(-c3ccc(F)c(Cl)c3)csc12 (stereo not shown) [Example 130, 3-(3-chloro-4-fluorophenyl)-7-(ethoxymethyl)-5-(2-(3-fluoropyrrolidin-1-yl)-2-oxoethyl)thieno[3,2-c]pyridin-4(5H)-one] | 42% |
| O=C(Cn1ccc2scc(-c3ccc(Cl)c(C(F)(F)F)c3)c2c1=O)N1CC[C@H](F)C1 [Example 15, (S)-3-(4-chloro-3-(trifluoromethyl)phenyl)-5-(2-(3-fluoropyrrolidin-1-yl)-2-oxoethyl)thieno[3,2-c]pyridin-4(5H)-one] | 95% |
| CCn1cc(-c2ccc(Cl)c(C(F)(F)F)c2)c2c(=O)n(CC(=O)N3CCCC3)cnc21 [Example 157, 5-(4-chloro-3-(trifluoromethyl)phenyl)-7-ethyl-3-(2-oxo-2-(pyrrolidin-1-yl)ethyl)-3H-pyrrolo[2,3-d]pyrimidin-4(7H)-one] | 70% |
| O=C(Cn1ccc2scc(-c3ccc(F)c(C(F)(F)F)c3)c2c1=O)N1CC(F)(C2CC2)C1 [Example 45, 5-(2-(3-cyclopropyl-3-fluoroazetidin-1-yl)-2-oxoethyl)-3-(4-fluoro-3-(trifluoromethyl)phen-yl)thieno[3,2-c]pyridin-4(5H)-one] | 12% |
| O=C(Cn1cnc2csc(-c3ccc(Cl)c(F)c3)c2c1=O)N1CCCC1 [Example 367, 5-(4-chloro-3-fluorophenyl)-3-(2-oxo-2-(pyrrolidin-1-yl)ethyl)thieno[3,4-d]pyrimidin-4(3H)-one] | 15% |
